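Following 48 hours of exposure in 96-well plates, responses at five concentrations were used to interpolate endpoints linearly. GI50: concentration for 50% inhibition of growth.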 The source made the active and inactive calls. Rule as the data show it: active = GI50 up to about 1.1 µM and inactive = higher.
What was measured:
Test in all cases: growth of human tumour cells (NCI), 48 h
[1] = test system: 786-0
[2] = test system: A498
[3] = test system: A549
[4] = test system: ACHN
[5] = test system: CAKI-1
[6] = test system: CCRF-CEM
[7] = test system: COLO 205
[8] = test system: DLD-1
[9] = test system: DMS-273
[10] = test system: EKVX
[11] = test system: HCC 2998
[12] = test system: HCT-116
[13] = test system: HCT-15
[14] = test system: HL-60
[15] = test system: HOP-18
[16] = test system: HOP-62
[17] = test system: HT-29
[18] = test system: IGROV-1
[19] = test system: K562
[20] = test system: KM-20L2
[21] = test system: KM12
[22] = test system: LOX IMVI
[23] = test system: LXFL 529
[24] = test system: M14
[25] = test system: M19-MEL
[26] = test system: MOLT-4
[27] = test system: Malme-3M
[28] = test system: NCI-H226
[29] = test system: NCI-H23
[30] = test system: NCI-H460
[31] = test system: NCI-H522
[32] = test system: OVCAR-3
[33] = test system: OVCAR-4
[34] = test system: OVCAR-5
[35] = test system: OVCAR-8
[36] = test system: RPMI-8226
[37] = test system: RXF 393
[38] = test system: SF-295
[39] = test system: SF-539
[40] = test system: SK-MEL-2
[41] = test system: SK-MEL-5
[42] = test system: SK-OV-3
[43] = test system: SN12C
[44] = test system: SNB-19
[45] = test system: SNB-75
[46] = test system: SNB-78
[47] = test system: SR
[48] = test system: SW-620
[49] = test system: TK-10
[50] = test system: U-251
[51] = test system: UACC-257
[52] = test system: UACC-62
[53] = test system: UO-31
[54] = test system: XF498
[55] = test system: DMS-114
[56] = test system: HOP-92
[57] = test system: SF-268
[58] = test system: SK-MEL-28

Structure (SMILES): CCCCn1c(-c2ccccc2)cs/c1=N\NC(=O)Cn1c(C)nc2ccccc21
- GI50 [1]: > 100 µM (inactive)
- GI50 [2]: > 100 µM (inactive)
- GI50 [3]: 81.1 µM (inactive)
- GI50 [4]: 75.9 µM (inactive)
- GI50 [5]: 62.5 µM (inactive)
- GI50 [6]: 17.9 µM (inactive)
- GI50 [7]: 17.1 µM (inactive)
- GI50 [8]: > 100 µM (inactive)
- GI50 [9]: 76 µM (inactive)
- GI50 [10]: 47.1 µM (inactive)
- GI50 [11]: 89.1 µM (inactive)
- GI50 [12]: 97.3 µM (inactive)
- GI50 [13]: 97.9 µM
- GI50 [14]: 14.4 µM (inactive)
- GI50 [15]: > 100 µM (inactive)
- GI50 [16]: > 100 µM (inactive)
- GI50 [17]: > 100 µM (inactive)
- GI50 [18]: > 100 µM (inactive)
- GI50 [19]: 14.5 µM (inactive)
- GI50 [20]: 84.9 µM (inactive)
- GI50 [21]: 70.8 µM (inactive)
- GI50 [22]: 32.6 µM (inactive)
- GI50 [23]: 25.1 µM (inactive)
- GI50 [24]: 53.2 µM (inactive)
- GI50 [25]: 30.4 µM (inactive)
- GI50 [26]: 16.3 µM (inactive)
- GI50 [27]: 35.7 µM (inactive)
- GI50 [28]: 35.8 µM (inactive)
- GI50 [29]: 8.75 µM (inactive)
- GI50 [30]: 76.7 µM (inactive)
- GI50 [31]: 30.2 µM (inactive)
- GI50 [32]: 40.6 µM (inactive)
- GI50 [33]: 6.12 µM (inactive)
- GI50 [34]: > 100 µM (inactive)
- GI50 [35]: > 100 µM (inactive)
- GI50 [36]: 14.7 µM (inactive)
- GI50 [37]: 34.3 µM (inactive)
- GI50 [38]: 33.5 µM (inactive)
- GI50 [39]: > 100 µM (inactive)
- GI50 [40]: > 100 µM (inactive)
- GI50 [41]: 20.4 µM (inactive)
- GI50 [42]: > 100 µM (inactive)
- GI50 [43]: 19.8 µM (inactive)
- GI50 [44]: > 100 µM (inactive)
- GI50 [45]: 60.1 µM (inactive)
- GI50 [46]: > 100 µM (inactive)
- GI50 [47]: 11.5 µM (inactive)
- GI50 [48]: > 100 µM (inactive)
- GI50 [49]: > 100 µM (inactive)
- GI50 [50]: 96.2 µM (inactive)
- GI50 [51]: 34.5 µM (inactive)
- GI50 [52]: 58.6 µM (inactive)
- GI50 [53]: 55.6 µM (inactive)
- GI50 [54]: 31.9 µM (inactive)

Structure (SMILES): Nc1nc(SCCNC(=O)CCc2ccc(O)cc2)nc2c1ncn2C1OC(CO)C(O)C1O (centres undefined)
- GI50 [1]: > 203 µM (inactive)
- GI50 [2]: > 203 µM (inactive)
- GI50 [3]: > 203 µM (inactive)
- GI50 [4]: > 203 µM (inactive)
- GI50 [5]: > 203 µM (inactive)
- GI50 [6]: > 203 µM (inactive)
- GI50 [7]: > 203 µM (inactive)
- GI50 [8]: > 203 µM (inactive)
- GI50 [55]: > 203 µM (inactive)
- GI50 [9]: > 203 µM (inactive)
- GI50 [11]: > 203 µM (inactive)
- GI50 [12]: > 203 µM (inactive)
- GI50 [13]: > 203 µM
- GI50 [14]: > 203 µM (inactive)
- GI50 [15]: > 203 µM (inactive)
- GI50 [16]: > 203 µM (inactive)
- GI50 [56]: > 203 µM (inactive)
- GI50 [17]: > 203 µM (inactive)
- GI50 [18]: > 203 µM (inactive)
- GI50 [19]: > 203 µM (inactive)
- GI50 [20]: > 203 µM (inactive)
- GI50 [21]: > 203 µM (inactive)
- GI50 [22]: > 203 µM (inactive)
- GI50 [24]: > 203 µM (inactive)
- GI50 [25]: > 203 µM (inactive)
- GI50 [26]: > 203 µM (inactive)
- GI50 [27]: > 203 µM (inactive)
- GI50 [28]: > 203 µM (inactive)
- GI50 [29]: > 203 µM (inactive)
- GI50 [30]: > 203 µM (inactive)
- GI50 [31]: > 203 µM (inactive)
- GI50 [32]: > 203 µM (inactive)
- GI50 [33]: > 203 µM (inactive)
- GI50 [34]: > 203 µM (inactive)
- GI50 [35]: > 203 µM (inactive)
- GI50 [36]: > 203 µM (inactive)
- GI50 [57]: > 203 µM (inactive)
- GI50 [38]: > 203 µM (inactive)
- GI50 [39]: > 203 µM (inactive)
- GI50 [58]: > 203 µM (inactive)
- GI50 [40]: > 203 µM (inactive)
- GI50 [41]: > 203 µM (inactive)
- GI50 [42]: > 203 µM (inactive)
- GI50 [43]: > 203 µM (inactive)
- GI50 [44]: > 203 µM (inactive)
- GI50 [45]: > 203 µM (inactive)
- GI50 [46]: > 203 µM (inactive)
- GI50 [47]: > 203 µM (inactive)
- GI50 [48]: > 203 µM (inactive)
- GI50 [49]: > 203 µM (inactive)
- GI50 [50]: > 203 µM (inactive)
- GI50 [51]: > 203 µM (inactive)
- GI50 [52]: > 203 µM (inactive)
- GI50 [53]: > 203 µM (inactive)
- GI50 [54]: > 203 µM (inactive)

Source: ChEMBL document CHEMBL1201862, “PubChem BioAssay data set” (2004)
